Source: patent publication US8329639B2, “MUC1 based glycolipopeptide vaccine with adjuvant” (priority 2011, dated 2012)

Legend:
[1] = system: MUC1 antigen having SEQ ID NO: 2; assay: Humoral response: serum IgG ELISA on plates coated with MUC1 antigen; assay type: in vivo, C57B1/6J mice; settings: vaccine 5, 25 and 100 μg/mouse; PET lipid A 50 μg; serially diluted sera
Method: C57B1/6J mice were injected with a liposomal vaccine formulation of Example 1 in three different concentrations of vaccine (5, 25 and 100 μg). 50 μg dose of PET lipid A and saline were used as a negative control. Sera from the mice were isolated and subsequently serially diluted and incubated onto plates coated with MUC1 antigen having SEQ ID NO: 2. After incubation with sera, the plates were washed and a labeled anti-mouse IgG specific antibody was added. The antibody was washed off and the mouse IgG was measured via an ELISA reader.

[2] = system: B16-MUC1 tumor cells; assay: Tumor growth, B16-MUC1 model; assay type: in vivo, C57B1/6 mice; settings: 50 μg Liposomal PET Lipid A, value stated jointly with saline group
Method: (§1) C57B1/6 mice were treated using a bi-weekly schedule with saline vehicle, 50 μg Liposomal PET Lipid A or 5 μg of liposomal vaccine formulation of Example 1 starting on day −42. On Day 0, mice were challenged with either 2×10^6 B16-MUC1, 0.5×10^6 B16, or 2×10^6MC38-MUC1 tumor cells followed by two additional vaccinations on days +3 and +17. Tumor growth was recorded twice weekly.
In the B16-MUC1 model, animals treated with the Example 1 vaccine formulation had no tumors at Day 44. 9/12 animals were tumor free in the Example 1 vaccine formulation group at end of study. […] Mean tumor volume in these two groups was about 200 mm^3 by Day 10. By Day 24, mean tumor volume was about 1200 mm^3 for the saline and PET lipid A groups.

[3] = system: MC38-MUC1 tumor cells; assay: Tumor growth, MC38-MUC1 model; assay type: in vivo, C57B1/6 mice; settings: vaccine 5 μg, Liposomal PET Lipid A 50 μg
Method: as §1
In the MC38-MUC1 model, 3/12 animals were tumor free in the Example 1 vaccine formulation group at the end of the study. […] By Day 32, mean tumor volume was about 120 mm^3 for the Example 1 vaccine formulation group as compared to about 1200 mm^3 for the PET lipid A group and about 1700 mm^3 for the saline group.

Substance: pentaerythritol-6-chain-C14-glucosamine-mono-phosphate [PET lipid A]
- antibody (IgG) response by ELISA [1]: no antibody response
- mean tumor volume by Day 10 [2]: about 200 mm^3
- mean tumor volume by Day 24 [2]: about 1200 mm^3
- mean tumor volume by Day 32 [3]: about 1200 mm^3
